The values below come from ChEMBL document CHEMBL4177632 (Bioorg Med Chem, 2017).

Assay [1] addresses Aldo-keto reductase family 1 member A1 (Rattus norvegicus, UniProt P51635). The experiment in a line: Inhibition of ALR1 in Wistar rat kidney assessed as reduction in NADPH consumption preincubated for 1 min followed by substrate addition measured after 4 mins by spectrophotometric analysis.
Assay [2] addresses T1, Aldo-keto reductase family 1 member B1 (Rattus norvegicus, UniProt P07943). The assay can be described thus: Inhibition of ALR2 in Wistar rat eye lens assessed as reduction in NADPH consumption preincubated for 1 min followed by D,L-glyceraldehyde addition measured after 4 mins by spectrophotometric analysis.
In assay [3] the target is T2, Aldo-keto reductase family 1 member B1 (Homo sapiens, UniProt P15121). The assay can be described thus: Inhibition of recombinant human AKR1B1 using D,L-glyceraldehyde as substrate.
The target of assay [4] is T2, Aldo-keto reductase family 1 member B1. The assay can be described thus: Uncompetitive inhibition of recombinant human AKR1B1 using D,L-glyceraldehyde as substrate.
Assay [5] addresses Aldo-keto reductase family 1 member B10 (Homo sapiens, UniProt O60218). The assay can be described thus: Inhibition of recombinant human AKR1B10.
The target of assay [6] is T1, Aldo-keto reductase family 1 member B1. The experiment in a line: Uncompetitive inhibition of ALR2 in Wistar rat eye lens assessed as reduction in NADPH consumption preincubated for 1 min followed by D,L-glyceraldehyde addition measured after 4 mins by spectrophotometric analysis.

Structures are written as SMILES.

Sequence of Aldo-keto reductase family 1 member A1 (P51635 whole entry, looked up): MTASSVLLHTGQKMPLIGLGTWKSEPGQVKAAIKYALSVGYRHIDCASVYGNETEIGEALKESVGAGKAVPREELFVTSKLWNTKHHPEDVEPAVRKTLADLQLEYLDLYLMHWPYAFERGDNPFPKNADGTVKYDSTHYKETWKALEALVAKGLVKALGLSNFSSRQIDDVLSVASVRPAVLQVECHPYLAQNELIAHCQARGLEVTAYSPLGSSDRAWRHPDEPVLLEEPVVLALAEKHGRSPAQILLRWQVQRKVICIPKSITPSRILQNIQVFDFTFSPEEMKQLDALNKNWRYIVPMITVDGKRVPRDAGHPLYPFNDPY
Sequence of Aldo-keto reductase family 1 member B10 (O60218 whole entry): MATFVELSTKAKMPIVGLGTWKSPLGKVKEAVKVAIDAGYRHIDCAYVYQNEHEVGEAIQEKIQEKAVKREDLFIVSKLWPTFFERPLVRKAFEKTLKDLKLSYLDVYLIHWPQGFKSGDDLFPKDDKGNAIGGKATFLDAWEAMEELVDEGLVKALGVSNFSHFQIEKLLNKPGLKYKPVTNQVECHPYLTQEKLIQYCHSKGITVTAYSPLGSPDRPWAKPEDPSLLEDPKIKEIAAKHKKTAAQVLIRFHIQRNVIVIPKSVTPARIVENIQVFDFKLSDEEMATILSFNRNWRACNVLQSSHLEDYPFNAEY

What is called IC50 is the midpoint of a concentration-inhibition curve. As to `Cc1c(C=O)c2ccccc2n1CC(=O)O`, the IC50 in assay [1] stood at 11.8 µM; in assay [2] it was 0.34 µM.
With `CC(=O)N1CCc2c(c3ccccc3n2CC(=O)O)C1`, the values for the IC50 in assay [1] and in assay [2] were 21.9 µM and 0.0205 µM, respectively.
As for `CC(C)N1CCc2c(c3ccccc3n2CC(=O)O)C1`, the figures for the IC50 in assay [1] and in assay [2] were > 100 µM and 34.2 µM, respectively.
The term Ki denotes the dissociation constant of the complex between target and ligand, obtained from inhibition or displacement. `CCOC(=O)N1CCc2c(c3cc(OC)ccc3n2CC(=O)O)C1`: the IC50 in assay [3] turned out to be 0.0835 µM; in assay [1], 9.98 µM; in assay [2], 0.0126 µM; in assay [5], 9.43 µM. Moreover, the Ki in assay [4] was found to be 0.0661 µM; in assay [6] it was 0.0169 µM.
Consider `CC(=O)c1c(C)n(CC(=O)O)c2ccccc12`, for which the IC50 in assay [1] worked out at 11.2 µM; in assay [2], 0.169 µM.
For `O=C(O)Cn1c2c(c3ccccc31)CN(C(=O)C1CC1)CC2`, in that order: 7.54 µM and 0.0575 µM.
As to `CCOC(=O)N1CCc2c(c3cc(C(=O)O)ccc3n2CC(=O)O)C1`, the IC50 in assay [1] amounted to 4.84 µM; in assay [2], 0.0127 µM.
